Laboratory results from ChEMBL document CHEMBL1201862, “PubChem BioAssay data set” (2004).
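Assay format: 96-well plates, 48-hour exposure. GI50: concentration for 50% inhibition of growth.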 The source made the active and inactive calls. Rule as the data show it: active = GI50 up to about 1.1 µM and inactive = higher.

Tests used:
Assay in all cases: NCI-60 cell line screen, 48 h
[1] = tested on: RXF 631
[2] = tested on: KM-20L2
[3] = tested on: XF498
[4] = tested on: M19-MEL
[5] = tested on: DMS-114
[6] = tested on: Hs-578T
[7] = tested on: T47D
[8] = tested on: MDA-N
[9] = tested on: BT-549

| Structure (SMILES) | GI50 [1] | GI50 [2] | GI50 [3] | GI50 [4] | GI50 [5] | GI50 [6] | GI50 [7] | GI50 [8] | GI50 [9] |
| --- | --- | --- | --- | --- | --- | --- | --- | --- | --- |
| CCN(CC)CC(C)(C)C(=O)/C=C/c1ccc(C)cc1 | 9.42 µM (inactive) | 4.17 µM (inactive) | 7.96 µM (inactive) | 9.46 µM (inactive) | – | – | – | – | – |
| CCCCc1ccc(-n2c3nc(=O)n(C)c(=O)c-3nc3ccccc32)cc1 | 11.9 µM (inactive) | 4.4 µM (inactive) | 18.2 µM (inactive) | 1.5 µM (inactive) | 4.7 µM (inactive) | – | – | – | – |
| COc1cc(/C=C/C(=O)Oc2ccc(NC(C)=O)cc2)ccc1C(=O)OCc1ccccc1 | – | > 100 µM (inactive) | 25.6 µM (inactive) | > 100 µM (inactive) | > 90.8 µM (inactive) | > 100 µM (inactive) | > 100 µM (inactive) | > 100 µM (inactive) | > 100 µM (inactive) |
| Cc1ccccc1NC(=O)C(=O)C1CN(c2ccccc2)N=C1N (stereo not drawn) | > 100 µM (inactive) | > 100 µM (inactive) | > 100 µM (inactive) | > 100 µM (inactive) | – | – | – | – | – |
| CCCCC1=CSC(c2ccccc2)=C(c2ccccc2)S1 | > 100 µM (inactive) | 42.8 µM (inactive) | – | 38.9 µM (inactive) | > 100 µM (inactive) | – | – | – | – |
| C=C/C=C/NC(=O)OCc1ccccc1 | – | > 100 µM (inactive) | > 100 µM (inactive) | > 100 µM (inactive) | > 100 µM (inactive) | – | – | – | – |
| N#CNC1=NC(CCCC(=O)Nc2cccc([N+](=O)[O-])c2)=C(c2nc3ccccc3[nH]2)C(N)N1 (stereo not drawn) | – | > 100 µM (inactive) | > 100 µM (inactive) | > 100 µM (inactive) | > 100 µM (inactive) | – | – | – | – |
| Cc1ccc2c(c1)C1(OC(=O)c3ccccc31)c1ccc(F)cc1O2 (stereo not drawn) | 83.9 µM (inactive) | 44.1 µM (inactive) | 82.8 µM (inactive) | 57 µM (inactive) | 34.6 µM (inactive) | – | – | – | – |
| CC(C(=O)C(C)O[Si](c1ccccc1)(c1ccccc1)C(C)(C)C)=P(c1ccccc1)(c1ccccc1)c1ccccc1 (stereo not drawn) | – | 4.13 µM (inactive) | 2.79 µM (inactive) | 3.11 µM (inactive) | 2.39 µM (inactive) | – | – | – | – |
| [O-][n+]1ccccc1S [PYRITHIONE ZINC] | 0.968 µM (active) | 1.04 µM (active) | 0.226 µM (active) | 0.562 µM (active) | 0.419 µM (active) | – | – | – | – |
| CCC(C(C)N1CC(=O)NC(=O)C1)N1CC(=O)NC(=O)C1 (stereo not drawn) | – | > 69.2 µM (inactive) | 14.5 µM (inactive) | 41.4 µM (inactive) | 7.01 µM (inactive) | – | – | – | – |
| CCCCN(CCCC)C(=O)C(=O)C(C#N)c1ccc(C)cc1 (stereo not drawn) | – | > 100 µM (inactive) | > 100 µM (inactive) | > 100 µM (inactive) | > 100 µM (inactive) | – | – | – | – |
| Cc1cc(Cl)ccc1/N=C1/NC(=O)C(CC(=O)Nc2cccc(C)c2C)S1 (stereo not drawn) | 26.4 µM (inactive) | 29.9 µM (inactive) | 10.7 µM (inactive) | 35.1 µM (inactive) | 22.8 µM (inactive) | – | – | – | – |
| O=C(O)C1Cc2c([nH]c3ccccc23)C=N1 (stereo not drawn) | – | > 100 µM (inactive) | > 100 µM (inactive) | > 100 µM (inactive) | > 100 µM (inactive) | – | – | – | – |
| CN(CCO)c1nc(=O)c2c([nH]1)CCC2 | – | > 100 µM (inactive) | > 100 µM (inactive) | > 100 µM (inactive) | > 100 µM (inactive) | – | – | – | – |
| COc1ccc(NC(=O)CC(=O)n2nc(C)c(/N=N/c3ccccc3C(=O)O)c2C)cc1 | – | > 100 µM (inactive) | > 100 µM (inactive) | > 100 µM (inactive) | > 100 µM (inactive) | – | – | – | – |
| CCCc1c(C(=O)OCC)[nH]c(-c2ccc(-c3[nH]c(C(=O)OCC)c(CCC)c3C(=O)OCC)o2)c1C(=O)OCC | – | > 100 µM (inactive) | > 100 µM (inactive) | > 100 µM (inactive) | > 100 µM (inactive) | – | – | – | – |
| CCOC(=O)C1=C(Nc2ccccc2)OC/C1=N\NC(=O)Cc1ccccc1 | > 50 µM (inactive) | > 50 µM (inactive) | > 50 µM (inactive) | > 50 µM (inactive) | > 50 µM (inactive) | – | – | – | – |
| Cc1cc(C(C)(C)C)cc(Cc2cc(C(C)(C)C)cc(Cc3cc(C(C)(C)C)cc(C)c3O)c2O)c1O | – | 16.1 µM (inactive) | 1.65 µM (inactive) | 3.77 µM (inactive) | 4.21 µM (inactive) | – | – | – | – |
| Cc1ccc(C2=C(c3ccccc3)C(Br)(c3ccc(C)cc3)C(c3ccccc3)=C2c2ccc(C)cc2)cc1 | > 100 µM (inactive) | > 100 µM (inactive) | > 100 µM (inactive) | > 100 µM (inactive) | > 100 µM (inactive) | – | – | – | – |
| CN1C(=O)NC2(O)c3ccccc3C(=O)C12O (stereo not drawn) | – | > 100 µM (inactive) | > 100 µM (inactive) | > 100 µM (inactive) | > 100 µM (inactive) | – | – | – | – |
| CC1C=CC(=O)C(n2cc(F)c(=O)[nH]c2=O)O1 (stereo not drawn) | 19.7 µM (inactive) | 21.3 µM (inactive) | 15.1 µM (inactive) | 18.5 µM (inactive) | 15.9 µM (inactive) | – | – | – | – |
| CC(C)(C)C1=NO[C@H]2[C@@H](NC(=O)c3ccccc3)CC[C@@H]12 | – | > 100 µM (inactive) | > 100 µM (inactive) | > 100 µM (inactive) | > 100 µM (inactive) | – | – | – | – |
